We go through four molecules from patent US20240174728A1, “A USE OF A POLYPEPTIDE COMPOUND IN THE PREPARATION OF DRUGS FOR PREVENTING OR TREATING INFLAMMATORY BOWEL DISEASES AND RELATED INTESTINAL FIBROSIS” (Shenzhen Turier Biotech Co., Ltd., priority 2021, published 2024).

The subject of assay [1] is DSS induced acute intestinal fibrosis model of mouse. As to the kind of experiment: DSS induced acute intestinal fibrosis model of mouse (Example 2). Conditions: 3% DSS Day 1-7, compared with model group; for content of serum IL-6 (FIG. 7) / content of serum MMP-12 (FIG. 7) / collagenous fiber of colon tissues, Masson stained slice (FIG. 4A) / colon Ly-6g+ cells (neutrophile granulocyte infiltration), immunohistochemical staining (FIG. 6) / colon mucous layer α-SMA protein expression, immunohistochemical staining (FIG. 5): 120 μg/kg s.c. once/day; for content of serum IL-6 (FIG. 7) / content of serum MMP-12 (FIG. 7): 9th day serum, ##P≤0.01; for blue staining area of colon tissues, area ratio of blue collagen fibers to colon tissue in Masson staining (FIG. 4B): #P≤0.05. Format: in vivo, Balb/c mice. An excerpt:
The DSS in this example is purchased from MP Biomedicals (CAS No.: 9011-18-1), and the positive control compound 6-thioguanine (6-TG) is a compound based on prior art and is purchased from Shanghai Aladdin Biochemical Technology Co., Ltd. (CAS No.: 154-42-7).
(§1) After 7 days of adaptive feeding, 114 Balb/c mice of 6-8 weeks age (purchased from Guangdong Medical Laboratory Animal Center, with weight approx. 16-20 g) are subjected to the experiment. Then randomly put the mice into 19 groups, with 6 mice in each group. The groups are normal group, model group, 6-TG group and polypeptide compound groups 1-16.
Model the 19 groups of mice and administer the drug to them for 8 days. In the 8 days, the normal group is given normal drinking water and is given subcutaneous injection of PBS once every day. From Day 1 to Day 7, the model group drinks 3% DSS and is given subcutaneous injection of PBS once every day. On Day 8, 3% DSS is replaced with normal drinking water and subcutaneous injection of PBS is given once. From Day 1 to Day 7, the 6-TG group drinks 3% DSS and is given 2 mg/kg 6-TG by the means of gavage once every day. On Day 8, 3% DSS is replaced with normal drinking water and 2 mg/kg 6-TG is given by the means of gavage once. From Day 1 to Day 7, the polypeptide compound groups 1-16 drink 3% DSS and are given subcutaneous injection of 120 μg/kg polypeptide compounds 1-16 once every day. On Day 8, 3% DSS is replaced with normal drinking water and subcutaneous injection of 120 μg/kg polypeptide compounds 1-16 is given once.
In the drug administration period, the randomly selected polypeptide compound groups 3, 8, 11, 12, 13 and 14 and the normal group, model group and 6-TG group are used for testing, and the body weight, feces consistency and feces OB of the mice are recorded every day. The GraphPad Prism 8.3.0 software is used to plot the data into a diagram. Feces OB is measured by the benzidine method.
On the 9th day, all mice are killed. The serums and colon tissues of the mice are collected. The colon and cecum of the mice are removed together. The colon length is measured. The GraphPad Prism 8.3.0 software is used to plot the data into a diagram.
The serums of the mice from the randomly selected polypeptide compound groups 3, 8, 11, 12, 13 and 14 of the present invention and the normal group and model group are used for cytokine test.
The colons of the mice from the randomly selected polypeptide compound groups 3, 8, 11, 12, 13 and 14 and the normal group, model group and 6-TG group in the present invention are taken. Approx. 5 mm of intestinal segment is taken from the distal end of each colon and is fixed in 10% formalin. The specimens are fixed, dehydrated, wrapped in paraffin and sliced (5 μm). Then tissue HE staining, Masson staining, α-SMA α-SMA protein immunohistochemical staining and Ly-6g protein immunohistochemical staining are completed.

The subject of assay [2] is DSS induced chronic intestinal fibrosis model of mouse. The assay is described as follows: DSS induced chronic intestinal fibrosis model of mouse (Example 3, three cycles). Format: in vivo, Balb/c mice. Particulars: 2% DSS 5 days then water 2 weeks, 3 cycles, 120 μg/kg s.c. once/day, compared with model group; for blue staining area of colon tissues, area ratio of blue collagen fibers to colon tissue in Masson staining (FIG. 11B): #P≤0.05, ##P≤0.01; for content of serum IL-6 (FIG. 13) / content of serum MMP-8 (FIG. 13): serum at end of three cycles.
Excerpt: as §1
In the whole process, the normal group is given normal drinking water and is given subcutaneous injection PBS once every day. The model group is first given 2% DSS for 5 days and then given normal drinking water for 2 weeks. This is 1 cycle. The cycle is done 3 times. Subcutaneous injection of PBS is given once every day. The 6-TG group is first given 2% DSS for 5 days and then given normal drinking water for 2 weeks. This is 1 cycle. The cycle is done 3 times. 2 mg/kg 6-TG is given by the means of gavage once every day. The polypeptide compound groups 1-16 are first given 2% DSS for 5 days and then given normal drinking water for 2 weeks. This is 1 cycle. The cycle is done 3 times. Subcutaneous injection of 120 μg/kg polypeptide compounds 1-16 is given once every day.
During the administration period, the polypeptide compound groups 3, 8, 11, 12, 13 and 14 and the normal group, model group and 6-TG group are randomly selected, and the body weight, feces consistency and feces OB of the mice are recorded every day. The GraphPad Prism 8.3.0 software is used to plot the data into a diagram.
After completion of the 3rd cycle, the mice are dissected. The serums and colon tissues of the mice are collected. The colon and cecum are removed together. The colon length is measured. The GraphPad Prism 8.3.0 software is used to plot the data into a diagram.
The serums of the mice from the randomly selected polypeptide compound groups 3, 8, 11, 12, 13 and 14 and the normal group and model group of the present invention are used for cytokine test.
The colons of the mice from the randomly selected polypeptide compound groups 3, 8, 11, 12, 13 and 14 and the normal group and model group in the present invention are taken. Approx. 5 mm of intestinal segment is taken from the distal end of each colon and is fixed in 10% formalin. The specimens are fixed, dehydrated, wrapped in paraffin and sliced (5 μm). Then tissue HE staining, Masson staining and Fibronectin protein immunohistochemical staining are completed.

Setting [3] is: polypeptide 120 μg/kg s.c. or 6-TG 2 mg/kg p.o. once/day.
The mark [4] stands for this setting: polypeptide 120 μg/kg s.c. or 6-TG 2 mg/kg p.o. once/day, Day 1 to Day 8.

Starred links: 1 amine or outer side, 2 acyl side, 3 side chain; linkers in the order of their positions; H or OH if unused. Non-standard residues stand in square brackets, D forms with d. Groups on a side chain read outwards from the residue. Primed or numbered codes have the meaning given here. No end group written: not given here. *: point of attachment. C20 diacid = O=C(O)CCCCCCCCCCCCCCCCCCC(=O)*; Arachidoyl = CCCCCCCCCCCCCCCCCCCC(=O)*; γGlu = O=C(O)[C@H](CCC(=O)[*:2])N[*:1]; Iva = CC[C@](C)(N)C(=O)O; PEG2′ = not defined here; Aib = CC(C)(N)C(=O)O

“His-Aib-Gln-Gly-Thr-Phe-Thr-Ser-Asp-Lys(PEG2-PEG2-CO(CH2)18CH3)-Ser-Lys-Tyr-Leu-Asp-Glu-Arg-Ala-Ala-Gln-Asp-Phe-Iva-Gln-Trp-Leu-Leu-Asp-Gly-Gly-Pro-Ser-Ser-Gly-Aib-Pro-Pro-Pro-Ser-NH2 (H[Aib]QGTFTSDK([PEG2′-PEG2′-Arachidoyl])SKYLDERAAQDF[Iva]QWLLDGGPSSG[Aib]PPPS-NH2; not fully specified; printed as His-Aib-Gln-Gly-Thr-Phe-Thr-Ser-Asp-Lys(PEG2-PEG2-CO(CH2)18CH3)-Ser-Lys-Tyr-Leu-Asp-Glu-Arg-Ala-Ala-Gln-Asp-Phe-Iva-Gln-Trp-Leu-Leu-Asp-Gly-Gly-Pro-Ser-Ser-Gly-Aib-Pro-Pro-Pro-Ser-NH2) [Compound 11]”: in assay [1], the “content of serum IL-6 (FIG. 7)” value was “clearly decreases”; the “content of serum MMP-12 (FIG. 7)” value is listed as “clearly decreases”; the “collagenous fiber of colon tissues, Masson stained slice (FIG. 4A)” value (shortened to “collagenous fiber of colon tissues … (FIG. 4A)”) is “noticeably decrease”; the “colon Ly-6g+ cells (neutrophile granulocyte infiltration), immunohistochemical staining (FIG. 6)” value (“colon Ly-6g+ cells” below) is “clearly decrease”. The “colon mucous layer α-SMA protein expression, immunohistochemical staining (FIG. 5)” value in assay [1] is “clearly decreased”. For the same molecule, in assay [1] (setting [3]), the “colon tissue morphology, HE stained slice (FIG. 3)” value (from here on “colon tissue morphology … (FIG. 3)”) is “become intact” and the “blue staining area of colon tissues, area ratio of blue collagen fibers to colon tissue in Masson staining (FIG. 4B)” value is on record as “noticeably decrease”. Further, in assay [2], the “collagenous fiber of colon tissues, Masson stained slice (FIG. 11A)” value (from here on “collagenous fiber … (FIG. 11A)”) is on record as “noticeably decrease”; the “colon mucous layer Fibronectin protein expression, immunohistochemical staining (FIG. 12)” value is reported as “clearly decreased”; the “colon tissue morphology, HE stained slice (FIG. 10)” value (“colon tissue morphology … (FIG. 10)” for short) was “become intact”; the “blue staining area of colon tissues, area ratio of blue collagen fibers to colon tissue in Masson staining (FIG. 11B)” value is given as “noticeably decrease”. In assay [2], the “content of serum IL-6 (FIG. 13)” value is on record as “clearly decreases” and the “content of serum MMP-8 (FIG. 13)” value is “clearly decreases”.

With “His-(D-Ser)-Gln-Gly-Thr-Phe-Thr-Ser-Asp-Lys(PEG2-PEG2-γGlu-CO(CH2)18CO2H)-Ser-Lys-Tyr-Leu-Glu-Aib-Lys-Ala-Ala-Gln-Asp-Phe-Val-Glu-Trp-Leu-Lys-Ala-Gly-Gly-Pro-Ser-Ser-Gly-Ala-Pro-Pro-Pro-Ser-NH2 (H[dS]QGTFTSDK([PEG2′-PEG2′-γGlu-C20 diacid])SKYLE[Aib]KAAQDFVEWLKAGGPSSGAPPPS-NH2) [Compound 3]”, in assay [1], the “content of serum IL-6 (FIG. 7)” value is “clearly decreases”; the “content of serum MMP-12 (FIG. 7)” value was “clearly decreases”; the “collagenous fiber of colon tissues … (FIG. 4A)” value is on record as “noticeably decrease”; the “colon Ly-6g+ cells” value was “clearly decrease”. Moreover, the “colon mucous layer α-SMA protein expression, immunohistochemical staining (FIG. 5)” value in assay [1] is “clearly decreased”. Moreover, in assay [1] (setting [3]), the “colon tissue morphology … (FIG. 3)” value was “become intact” and the “blue staining area of colon tissues, area ratio of blue collagen fibers to colon tissue in Masson staining (FIG. 4B)” value is on record as “noticeably decrease”. For the same molecule, in assay [2], the “collagenous fiber … (FIG. 11A)” value is reported as “noticeably decrease”; the “colon mucous layer Fibronectin protein expression, immunohistochemical staining (FIG. 12)” value was “clearly decreased”; the “colon tissue morphology … (FIG. 10)” value was “become intact”; the “blue staining area of colon tissues, area ratio of blue collagen fibers to colon tissue in Masson staining (FIG. 11B)” value is given as “noticeably decrease”. In assay [2], the “content of serum IL-6 (FIG. 13)” value is “clearly decreases” and the “content of serum MMP-8 (FIG. 13)” value is “clearly decreases”.

For the molecule “His-(D-Ser)-Gln-Gly-Thr-Phe-Thr-Ser-Asp-Lys(PEG2-PEG2-γGlu-CO(CH2)18CO2H)-Ser-Lys-Tyr-Leu-Asp-Glu-Arg-Ala-Ala-Gln-Asp-Phe-Iva-Gln-Trp-Leu-Leu-Asp-Gly-Gly-Pro-Ser-Ser-Gly-Aib-Pro-Pro-Pro-Ser-NH2 (H[dS]QGTFTSDK([PEG2′-PEG2′-γGlu-C20 diacid])SKYLDERAAQDF[Iva]QWLLDGGPSSG[Aib]PPPS-NH2) [Compound 12]”, in assay [1], the “content of serum IL-6 (FIG. 7)” value is “clearly decreases”; the “content of serum MMP-12 (FIG. 7)” value is on record as “clearly decreases”; the “collagenous fiber of colon tissues … (FIG. 4A)” value was “noticeably decrease”; the “colon Ly-6g+ cells” value is “clearly decrease”. In addition, the “colon mucous layer α-SMA protein expression, immunohistochemical staining (FIG. 5)” value in assay [1] was “clearly decreased”. Further, in assay [1] (setting [3]), the “colon tissue morphology … (FIG. 3)” value is “become intact” and the “blue staining area of colon tissues, area ratio of blue collagen fibers to colon tissue in Masson staining (FIG. 4B)” value is on record as “noticeably decrease”. For the same molecule, in assay [2], the “collagenous fiber … (FIG. 11A)” value was “noticeably decrease”; the “colon mucous layer Fibronectin protein expression, immunohistochemical staining (FIG. 12)” value was “clearly decreased”; the “colon tissue morphology … (FIG. 10)” value is recorded as “become intact”; the “blue staining area of colon tissues, area ratio of blue collagen fibers to colon tissue in Masson staining (FIG. 11B)” value is “noticeably decrease”. Also, in assay [2], the “content of serum IL-6 (FIG. 13)” value was “clearly decreases” and the “content of serum MMP-8 (FIG. 13)” value is given as “clearly decreases”.

For the molecule `Nc1nc2nc[nH]c2c(=S)[nH]1` [Compound 6-TG, 6-thioguanine, reference compound], in assay [1] (setting [4]), the “body weight (daily conditions, FIG. 2)” value is reported as “decrease the body weight”; the “loose feces and hematochezia conditions (feces consistency and feces OB scores, FIG. 2)” value was “noticeably improve the loose feces and hematochezia conditions”. Also, in assay [1] (setting [3]), the “colon tissue morphology … (FIG. 3)” value is listed as “relatively improved” and the “blue staining area of colon tissues, area ratio of blue collagen fibers to colon tissue in Masson staining (FIG. 4B)” value is on record as “not improved”.
